Columns and labels:
EGF-R (HER-1) = target: T1, EGF-R (HER-1) (Homo sapiens, UniProt P00533); experiment: Inhibition of EGF-R tyrosine kinase activity (recombinant intracellular domain, EGF-R ICD); assay type: biochemical
T1 construct: using the recombinant intracellular domain of the EGF-receptor [EGF-R ICD
Experimental: J. Biochem. 207, 265-275 (1992)].
(§1) Inhibition of the Tyrosine Kinase Activity of EGF-R (HER-1), ErbB-2 (HER-2) and VEGF Receptor (KDR)
(§2) The inhibition tests are carried out as described above.

ErbB-2 (HER-2) = ErbB-2 (HER-2) (Homo sapiens, UniProt P04626); experiment: Inhibition of ErbB-2 tyrosine kinase activity; assay type: biochemical
Sequence of ErbB-2 (HER-2) (P04626 23-1255): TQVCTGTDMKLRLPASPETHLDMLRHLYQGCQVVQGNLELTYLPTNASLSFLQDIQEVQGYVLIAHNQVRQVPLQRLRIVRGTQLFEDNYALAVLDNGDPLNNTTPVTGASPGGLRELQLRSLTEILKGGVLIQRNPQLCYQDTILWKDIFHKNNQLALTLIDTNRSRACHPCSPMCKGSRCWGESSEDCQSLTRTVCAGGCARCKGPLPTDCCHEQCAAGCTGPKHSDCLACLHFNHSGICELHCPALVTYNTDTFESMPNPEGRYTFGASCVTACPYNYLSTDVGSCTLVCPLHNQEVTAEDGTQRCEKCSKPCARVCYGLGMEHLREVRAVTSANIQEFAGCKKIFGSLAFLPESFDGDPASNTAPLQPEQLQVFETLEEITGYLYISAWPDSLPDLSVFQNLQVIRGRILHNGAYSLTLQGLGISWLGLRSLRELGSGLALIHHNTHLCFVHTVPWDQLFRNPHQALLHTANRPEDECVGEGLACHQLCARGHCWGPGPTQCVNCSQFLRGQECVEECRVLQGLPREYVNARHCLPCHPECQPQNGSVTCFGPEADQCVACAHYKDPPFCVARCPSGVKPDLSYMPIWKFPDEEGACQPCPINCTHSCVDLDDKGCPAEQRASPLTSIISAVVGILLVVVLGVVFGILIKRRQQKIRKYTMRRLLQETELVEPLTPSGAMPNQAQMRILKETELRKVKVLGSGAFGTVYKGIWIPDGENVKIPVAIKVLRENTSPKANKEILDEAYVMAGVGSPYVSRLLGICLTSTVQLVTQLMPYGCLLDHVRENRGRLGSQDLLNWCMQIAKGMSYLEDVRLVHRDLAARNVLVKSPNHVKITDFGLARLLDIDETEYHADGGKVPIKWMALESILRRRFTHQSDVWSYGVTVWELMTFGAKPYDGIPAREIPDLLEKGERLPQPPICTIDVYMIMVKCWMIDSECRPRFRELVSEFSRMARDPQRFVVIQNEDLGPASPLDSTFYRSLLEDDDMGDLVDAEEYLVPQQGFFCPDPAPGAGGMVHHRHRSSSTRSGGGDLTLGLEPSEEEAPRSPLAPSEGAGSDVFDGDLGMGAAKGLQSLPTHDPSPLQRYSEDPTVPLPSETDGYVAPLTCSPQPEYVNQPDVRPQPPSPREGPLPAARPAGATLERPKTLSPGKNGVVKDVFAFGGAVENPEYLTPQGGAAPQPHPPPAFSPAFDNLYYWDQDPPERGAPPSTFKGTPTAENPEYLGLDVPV
Experimental: The inhibitory activity (IC50) is approximately in the range of 0.001 to 0.5 μM. The inhibition of ErbB-2 tyrosine kinase (HER-2) can be determined, for example, analogously to the method used for EGF-R protein tyrosine kinase [see C. House et al., Europ. J. Biochem. 140, 363-367 (1984)]. The ErbB-2 kinase can be isolated, and its activity determined, by means of protocols known per se, for example in accordance with T. Akiyama et al., Science 232, 1644 (1986).
as §1, §2

VEGF Receptor (KDR) = VEGF Receptor (KDR) (Homo sapiens, UniProt P35968); experiment: Inhibition of KDR tyrosine kinase activity; assay type: biochemical
Sequence of VEGF Receptor (KDR) (P35968 20-1356): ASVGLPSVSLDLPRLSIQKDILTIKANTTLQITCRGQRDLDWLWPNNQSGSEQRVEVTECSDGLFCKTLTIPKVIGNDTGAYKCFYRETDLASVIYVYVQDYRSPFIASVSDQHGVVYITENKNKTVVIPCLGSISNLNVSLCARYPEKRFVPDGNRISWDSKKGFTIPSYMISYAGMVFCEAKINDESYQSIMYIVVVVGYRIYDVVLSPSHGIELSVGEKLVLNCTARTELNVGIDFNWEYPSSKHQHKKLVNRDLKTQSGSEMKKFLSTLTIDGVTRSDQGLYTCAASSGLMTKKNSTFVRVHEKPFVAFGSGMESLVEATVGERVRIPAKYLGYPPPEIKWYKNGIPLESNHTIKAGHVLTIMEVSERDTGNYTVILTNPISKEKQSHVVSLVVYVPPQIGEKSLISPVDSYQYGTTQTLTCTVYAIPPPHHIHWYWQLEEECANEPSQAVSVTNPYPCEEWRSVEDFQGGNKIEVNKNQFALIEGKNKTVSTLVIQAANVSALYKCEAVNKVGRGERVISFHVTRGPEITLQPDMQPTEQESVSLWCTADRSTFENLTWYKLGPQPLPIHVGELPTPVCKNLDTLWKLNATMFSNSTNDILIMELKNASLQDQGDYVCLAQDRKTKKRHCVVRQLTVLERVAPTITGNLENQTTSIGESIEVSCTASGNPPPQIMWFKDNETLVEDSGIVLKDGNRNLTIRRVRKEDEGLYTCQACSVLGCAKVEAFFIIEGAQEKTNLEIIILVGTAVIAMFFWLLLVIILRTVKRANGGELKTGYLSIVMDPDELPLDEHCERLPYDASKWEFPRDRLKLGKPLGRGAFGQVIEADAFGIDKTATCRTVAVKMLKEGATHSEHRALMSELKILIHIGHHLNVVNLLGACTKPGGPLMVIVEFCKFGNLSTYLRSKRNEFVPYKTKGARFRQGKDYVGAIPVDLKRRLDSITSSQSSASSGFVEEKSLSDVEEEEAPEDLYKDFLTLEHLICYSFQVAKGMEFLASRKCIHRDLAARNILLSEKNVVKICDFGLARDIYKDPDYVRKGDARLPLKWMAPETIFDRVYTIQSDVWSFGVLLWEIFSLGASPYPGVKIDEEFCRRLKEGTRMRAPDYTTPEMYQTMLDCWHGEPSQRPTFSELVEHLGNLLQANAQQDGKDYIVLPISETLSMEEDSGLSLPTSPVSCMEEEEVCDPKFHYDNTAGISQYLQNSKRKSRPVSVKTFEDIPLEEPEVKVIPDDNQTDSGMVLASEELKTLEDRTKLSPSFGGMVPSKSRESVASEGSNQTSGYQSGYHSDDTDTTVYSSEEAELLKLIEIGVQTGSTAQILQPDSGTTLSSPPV
Experimental: The compounds of the present invention are therefore very effective dual inhibitors of EGF- and VEGF-receptor family members. For inhibition of KDR and Flt-1 and inhibition of growth factor-induced proliferation of HUVECS see J. Wood et al., Cancer Res. 60, 2178-2189 (2000). The compounds of formula I inhibit e.g. the KDR tyrosine kinase activity with an IC50 of from about 1 nM to about 1 μM, especially from about 5 nM to about 0.5 μM.
as §1, §2

T1 sequence (P00533 669-1210 limits assumed): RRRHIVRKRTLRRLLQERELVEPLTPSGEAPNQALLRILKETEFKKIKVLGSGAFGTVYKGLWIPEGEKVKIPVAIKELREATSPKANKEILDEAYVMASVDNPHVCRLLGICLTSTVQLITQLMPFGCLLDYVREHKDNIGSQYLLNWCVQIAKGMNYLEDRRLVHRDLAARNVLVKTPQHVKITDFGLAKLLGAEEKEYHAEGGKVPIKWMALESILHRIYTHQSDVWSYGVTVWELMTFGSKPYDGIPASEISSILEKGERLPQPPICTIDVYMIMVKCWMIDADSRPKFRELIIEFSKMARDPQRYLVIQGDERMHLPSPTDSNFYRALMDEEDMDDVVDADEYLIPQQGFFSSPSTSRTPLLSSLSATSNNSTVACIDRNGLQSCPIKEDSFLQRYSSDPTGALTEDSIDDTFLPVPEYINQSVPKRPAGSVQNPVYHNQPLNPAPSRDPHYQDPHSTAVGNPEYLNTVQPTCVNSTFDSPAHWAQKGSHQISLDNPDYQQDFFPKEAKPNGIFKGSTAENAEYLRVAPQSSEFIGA

IC50 (EGF-R (HER-1)) | IC50 (ErbB-2 (HER-2)) | IC50 (VEGF Receptor (KDR)) | melting point | SMILES
1.2 nM | 16 nM | 61 nM | 222 to 224 °C | C[C@@H](Nc1ncnc2[nH]c(-c3ccc(CNCCN4CCOCC4)cc3)cc12)c1ccccc1 [Example 16a, (6-{4-[(2-Morpholin-4-yl-ethylamino)-methyl]-phenyl}-7H-pyrrolo[2,3-d]pyrimidin-4-yl)-((R)-1-phenyl-ethyl)-amine]
16.5 nM | 31.5 nM | 24.5 nM | 256 to 258 °C | CN1CCN(Cc2ccc(-c3cc4c(Nc5ccc(OCc6ccccc6)cc5)ncnc4[nH]3)cc2)CC1 [Example 18, (4-Benzyloxy-phenyl)-{6-[4-(4-methyl-piperazin-1-ylmethyl)-phenyl]-7H-pyrrolo[2,3-d]pyrimidin-4-yl}-amine]
5 nM | 11.5 nM | 51.5 nM | 150 to 152 °C | C[C@@H](Nc1ncnc2[nH]c(-c3ccc(CNC(=O)CN4CCN(C)CC4)cc3)cc12)c1ccccc1 [Example 43, 2-(4-Methyl-piperazin-1-yl)-N-{4-[4-((R)-1-phenyl-ethylamino)-7H-pyrrolo[2,3-d]pyrimidin-6-yl]-benzyl}-acetamide]
5.7 nM | 7.5 nM | 58 nM | 272 to 275 °C | O=C(CN1CCOCC1)NCc1ccc(-c2cc3c(Nc4ccc(F)c(Cl)c4)ncnc3[nH]2)cc1 [Example 48, N-{4-[4-(3-Chloro-4-fluoro-phenylamino)-7H-pyrrolo[2,3-d]pyrimidin-6-yl]-benzyl}-2-morpholin-4-yl-acetamide]
15.7 nM | 14 nM | 125 nM | 232 to 234 °C | CN1CCN(CC(=O)NCc2ccc(-c3cc4c(Nc5ccc(OCc6ccccc6)cc5)ncnc4[nH]3)cc2)CC1 [Example 52, N-{4-[4-(4-Benzyloxy-phenylamino)-7H-pyrrolo[2,3-d]pyrimidin-6-yl]-benzyl}-2-(4-methyl-piperazin-1-yl)-acetamide]
5.5 nM | 16 nM | 105 nM | 253 to 254.5 °C | Clc1cccc(CNc2ncnc3[nH]c(-c4ccc(CN5CCOCC5)cc4)cc23)c1 [Example 86, (3-Chloro-benzyl)-[6-(4-morpholin-4-ylmethyl-phenyl)-7H-pyrrolo[2,3-d]pyrimidin-4-yl]-amine]
1.8 nM | 16 nM | 42 nM | 267 to 269 °C | CN1CCN(Cc2ccc(-c3cc4c(NCc5ccccc5Cl)ncnc4[nH]3)cc2)CC1 [Example 94, (2-Chloro-benzyl)-{6-[4-(4-methyl-piperazin-1-ylmethyl)-phenyl]-7H-pyrrolo[2,3-d]pyrimidin-4-yl}-amine]

— patent publication US7323469B2, “7H-pyrrolo[2,3-d]pyrimidine derivatives” (Novartis AG, priority 2001, dated 2008)
